What was measured:
MOLM-13 cells = experiment: In vitro proliferation (Cell Titer Glo), Compound 51 with decitabine and venetoclax, MOLM-13; type: cell-based, human; set-up: key to maxR test call (additive / antagonism / synergy): no asterisk: absence of any asterisk indicates an additive effect; antagonism is indicated by “*”; synergy is indicated by “**”; Effect size (BIGL, HSA null model): scale not given here
Description: 3a) In Vitro Proliferation—Menin-MLL Inhibitor in Combination with a DNA Hypomethylating Agent (Decitabine) and a BCL2 Inhibitor (Venetoclax)
The effect of Compound 51 in combination with decitabine and venetoclax was determined in proliferation assays.
AML cell lines MOLM-13, OCI-AML3 and MV4-11 were purchased from DSMZ. MOLM-13 were grown in RPMI medium supplemented with 10% Fetal Bovine Serum (FBS) and 1% penicillin/streptomycin. MV4-11 cells were grown in IMDM medium supplemented with 10% FBS and 1% penicillin/streptomycin. OCI-AML3 cells were cultured in 80-90% alpha-MEM (without ribo- and deoxyribonucleosides)+10-20% FBS. All cell lines were cultured at 37° C. in 5% CO2 atmosphere.
AML cell lines (10×10^3 cells/well) were seeded in 96-well plates and grown for 6 days in serum (10%)-containing medium in the presence or absence of inhibitors at the indicated concentrations. Proliferation was analyzed by means of a Cell Titer Glo assay using the CellTiter 96 Aqueous One Solution Cell Proliferation Assay (Promega, Madison, WI, USA), according to the manufacturer's instructions. Data are mean with standard deviation from two to four independent experiments in technical triplicates.
R-based Biochemically Intuitive Generalized Loewe (BIGL) model implemented with a highest single agent (HSA) null model. Specifically, the BIGL methodology was applied to calculate drug-drug interactions (Van der Borght, K., Tourny, A., Bagdziunas, R. et al. BIGL: Biochemically Intuitive Generalized Loewe null model for prediction of the expected combined effect compatible with partial agonism and antagonism. Sci Rep 7, 17935 (2017); Thas, O., Tourny, A., Verbist, B., Hawinkel, S., Nazarov, M., Mutambanengwe, K., & Bijnens, L. Statistical detection of synergy: new methods and a comparative study. Pharmaceutical Statistics (2021)).
Synergy matrix results of the BIGL analysis of the cell line data with HSA as mean model calculated on the basis of the cellular metabolic activity using Cell Titer-Glo assay. Bootstrap confidence intervals are indicated. Effect sizes and their confidence intervals are shown. […] No significant average effect if zero is included in the interval.

OCI-AML3 cells = experiment: Proliferation (spheroid) assay, OCI-AML3; type: cell-based; conditions: Homo sapiens, OCI-AML-3, 192 h; 8 days; read-out: spheroid assay_OCI-AML3 IC50
Description: The anti-proliferative effect of menin/MLL protein/protein interaction inhibitor test compounds was assessed in human leukemia cell lines. The cell line MOLM14 harbors a MLL translocation and expresses the MLL fusion protein MLL-AF9, respectively, as well as the wildtype protein from the second allele. OCI-AML3 cells that carry the NPM1c gene mutation were also tested. […] KO-52 was used as a control cell line containing two MLL (KMT2A) wildtype alleles in order to exclude compounds that display general cytotoxic effects.
MOLM14 cells were cultured in RPMI-1640 (Sigma Aldrich) supplemented with 10% heat-inactivated fetal bovine serum (HyClone), 2 mM L-glutamine (Sigma Aldrich) and 50 μg/ml gentamycin (Gibco). KO-52 and OCI-AML3 cell lines were propagated in alpha-MEM (Sigma Aldrich) supplemented with 20% heat-inactivated fetal bovine serum (HyClone), 2 mM L-glutamine (Sigma Aldrich) and 50 μg/ml gentamycin (Gibco).
In order to assess the anti-proliferative effects, 200 MOLM14 cells, 200° C. […] Spheroid like growth was measured in real-time by live-cell imaging (IncuCyteZOOM, Essenbio, 4× objective) acquiring images at day 8. Confluence (%) as a measure of spheroid size was determined using an integrated analysis tool.
In order to determine the effect of the test compounds over time, the confluence in each well as a measure of spheroid size, was calculated. […]

[1] = Compound 51 0.05 μM, Decitabine 0.015 μM, Venetoclax 0.001 μM
[2] = Compound 51 0.05 μM, Decitabine 0.35 μM, Venetoclax 0.002 μM
[3] = Compound 51 0.1 μM, Decitabine 0.015 μM, Venetoclax 0.001 μM
[4] = Compound 51 0.1 μM, Decitabine 0.35 μM, Venetoclax 0.002 μM
[5] = Compound 51 1 μM, Decitabine 0.35 μM, Venetoclax 0.002 μM
[6] = Compound 51 10 μM, Decitabine 0.015 μM, Venetoclax 0.001 μM
[7] = Compound 51 10 μM, Decitabine 0.35 μM, Venetoclax 0.002 μM

## CC(=O)N1CCC(CN2CC[C@@H](Cc3cn(-c4ccc(F)cc4C(=O)N(C)C(C)C)c4cncc(C)c34)C2)CC1 [Compound 51]
MOLM-13 cells; Compound 51 0.001 μM, Decitabine 0.0015 μM, Venetoclax 0.0001 μM
  Effect size (BIGL, HSA null model): −0.04
MOLM-13 cells; Compound 51 0.001 μM, Decitabine 0.015 μM, Venetoclax 0.001 μM
  Effect size (BIGL, HSA null model): −0.05
MOLM-13 cells; Compound 51 0.001 μM, Decitabine 0.35 μM, Venetoclax 0.002 μM
  Effect size (BIGL, HSA null model): 0.01
MOLM-13 cells; Compound 51 0.001 μM, Decitabine 1.5 μM, Venetoclax 0.02 μM
  Effect size (BIGL, HSA null model): −0.04
MOLM-13 cells; Compound 51 0.001 μM, Decitabine 3 μM, Venetoclax 0.2 μM
  Effect size (BIGL, HSA null model): −0.03
MOLM-13 cells; Compound 51 0.01 μM, Decitabine 0.0015 μM, Venetoclax 0.0001 μM
  Effect size (BIGL, HSA null model): −0.02
MOLM-13 cells; Compound 51 0.01 μM, Decitabine 0.015 μM, Venetoclax 0.001 μM
  Effect size (BIGL, HSA null model): −0.17
MOLM-13 cells; Compound 51 0.01 μM, Decitabine 0.35 μM, Venetoclax 0.002 μM
  Effect size (BIGL, HSA null model): −0.1
MOLM-13 cells; Compound 51 0.01 μM, Decitabine 1.5 μM, Venetoclax 0.02 μM
  Effect size (BIGL, HSA null model): −0.05
MOLM-13 cells; Compound 51 0.01 μM, Decitabine 3 μM, Venetoclax 0.2 μM
  Effect size (BIGL, HSA null model): −0.03
MOLM-13 cells; Compound 51 0.05 μM, Decitabine 0.0015 μM, Venetoclax 0.0001 μM
  Effect size (BIGL, HSA null model): −0.03
MOLM-13 cells; [1]
  Effect size (BIGL, HSA null model): −0.18
  maxR test call (additive / antagonism / synergy): **
MOLM-13 cells; [2]
  Effect size (BIGL, HSA null model): −0.25
  maxR test call (additive / antagonism / synergy): **
MOLM-13 cells; Compound 51 0.05 μM, Decitabine 1.5 μM, Venetoclax 0.02 μM
  Effect size (BIGL, HSA null model): −0.05
MOLM-13 cells; Compound 51 0.05 μM, Decitabine 3 μM, Venetoclax 0.2 μM
  Effect size (BIGL, HSA null model): −0.03
MOLM-13 cells; Compound 51 0.1 μM, Decitabine 0.0015 μM, Venetoclax 0.0001 μM
  Effect size (BIGL, HSA null model): 0.01
MOLM-13 cells; [3]
  Effect size (BIGL, HSA null model): −0.16
  maxR test call (additive / antagonism / synergy): **
MOLM-13 cells; [4]
  Effect size (BIGL, HSA null model): −0.27
  maxR test call (additive / antagonism / synergy): **
MOLM-13 cells; Compound 51 0.1 μM, Decitabine 1.5 μM, Venetoclax 0.02 μM
  Effect size (BIGL, HSA null model): −0.05
MOLM-13 cells; Compound 51 0.1 μM, Decitabine 3 μM, Venetoclax 0.2 μM
  Effect size (BIGL, HSA null model): −0.03
MOLM-13 cells; Compound 51 1 μM, Decitabine 0.0015 μM, Venetoclax 0.0001 μM
  Effect size (BIGL, HSA null model): 0.05
MOLM-13 cells; Compound 51 1 μM, Decitabine 0.015 μM, Venetoclax 0.001 μM
  Effect size (BIGL, HSA null model): −0.12
MOLM-13 cells; [5]
  Effect size (BIGL, HSA null model): −0.28
  maxR test call (additive / antagonism / synergy): **
MOLM-13 cells; Compound 51 1 μM, Decitabine 1.5 μM, Venetoclax 0.02 μM
  Effect size (BIGL, HSA null model): −0.05
MOLM-13 cells; Compound 51 1 μM, Decitabine 3 μM, Venetoclax 0.2 μM
  Effect size (BIGL, HSA null model): −0.03
MOLM-13 cells; Compound 51 10 μM, Decitabine 0.0015 μM, Venetoclax 0.0001 μM
  Effect size (BIGL, HSA null model): −0.05
MOLM-13 cells; [6]
  Effect size (BIGL, HSA null model): −0.17
  maxR test call (additive / antagonism / synergy): **
MOLM-13 cells; [7]
  Effect size (BIGL, HSA null model): −0.29
  maxR test call (additive / antagonism / synergy): **
MOLM-13 cells; Compound 51 10 μM, Decitabine 1.5 μM, Venetoclax 0.02 μM
  Effect size (BIGL, HSA null model): −0.05
MOLM-13 cells; Compound 51 10 μM, Decitabine 3 μM, Venetoclax 0.2 μM
  Effect size (BIGL, HSA null model): −0.03
MOLM-13 cells; pairwise matrix of decitabine and Compound 51 in the presence of Venetoclax, MOLM-13, 6-day CellTiter-Glo
  combination effect on proliferation (in words): synergistically cytotoxic
OCI-AML3 cells
  IC50: 24 nM
